Source: publication PMC9807592, “New thioxothiazolidinyl-acetamides derivatives as potent urease inhibitors: design, synthesis, in vitro inhibition, and molecular dynamic simulation” (Scientific Reports, 2023)
≈ marks a conversion by molar mass, not a printed value. Where two headings read alike, the source gives them in different places.

Experiments:
C. albicans ATCC 10261 = assay: Antimicrobial activity, broth microdilution (CLSI); assay type: cell-based; settings: Candida albicans, ATCC10261
Method: The antimicrobial activity of designed compounds was investigated using broth microdilution.
(§1) Briefly, twofold serial dilutions of the compounds were prepared in Mueller–Hinton Broth (MHB, HiMedia) for bacterial strains and RPMI-1640 (Sigma-Aldrich) for yeast strain (Ranging 1–512 µg/ml). Then, 100 μL of each dilution was transferred into the well of a microtiter plate and inoculated with 100 μL of cell suspension with a final density of 1–5 × 10^3 CFU/ml for yeasts and 1–1.5 × 10^6 cells/ml for bacteria. Plates were incubated at proper temperature overnight, and the minimum inhibitory concentration (MIC) of compounds was determined as the lowest concentration that prevented visible growth of tested microorganisms compared with the growth in the control wells (wells without tested compounds). Moreover, the minimum bactericidal/fungicidal concentration (MBC/MFC) of compounds was determined by transferring the 10 µl of clear wells into the agar media. Standard antibacterial and antifungal agents (Ciprofloxacin and Fluconazole) were evaluated. All experiments were performed in duplicate[30],[31].

S. aureus biofilm = assay: Inhibition of biofilm formation (crystal violet assay); assay type: cell-based; settings: Staphylococcus aureus, read-out: inhibition in the development of biofilm by S. aureus
Method: To evaluate the ability of the synthesized compounds 6a-i to prevent biofilm formation by standard species of S. aureus (ATCC25923) and MRSA strain, biofilms were pre-formed in 96 well plates, as previously described. Firstly, bacterial strains were inoculated into Tryptic Soy Broth (TSB) medium. The cells were cultivated on a shaker overnight for 180 r/min at 37 °C. Then, the suspension was centrifuged, and the cells were washed with PBS three times. Diluted cell suspension of strains was added into the wells with 1 × 10^6 final concentration. The plates were incubated for 4 h at 37 °C. After that, 100 μl of each of the dissolved compounds was added to a final concentration of […] in the wells. The plates were further incubated for 24 h at 37 °C. Following incubation, the crystal violet assay was performed to evaluate the inhibition of biofilm formation. For this purpose, the supernatant of the wells was aspirated gently, and the wells were washed three times with sterile distilled water. […] Assessment of biofilm formation was performed by transferring 100 μl of the destaining solution to a new plate and measuring the absorbance at 590 nm using a microplate reader. […] The mean absorbance (OD590 nm) of the samples was determined, and percentage inhibition was obtained using Eq. (1) as follows: 1 Percentageinhibition:ODblank-ODtest×100/ODblank

urease = urease (Canavalia ensiformis, UniProt P07374); assay: biochemical; assay type: biochemical
urease, sequence (P07374 whole entry, looked up): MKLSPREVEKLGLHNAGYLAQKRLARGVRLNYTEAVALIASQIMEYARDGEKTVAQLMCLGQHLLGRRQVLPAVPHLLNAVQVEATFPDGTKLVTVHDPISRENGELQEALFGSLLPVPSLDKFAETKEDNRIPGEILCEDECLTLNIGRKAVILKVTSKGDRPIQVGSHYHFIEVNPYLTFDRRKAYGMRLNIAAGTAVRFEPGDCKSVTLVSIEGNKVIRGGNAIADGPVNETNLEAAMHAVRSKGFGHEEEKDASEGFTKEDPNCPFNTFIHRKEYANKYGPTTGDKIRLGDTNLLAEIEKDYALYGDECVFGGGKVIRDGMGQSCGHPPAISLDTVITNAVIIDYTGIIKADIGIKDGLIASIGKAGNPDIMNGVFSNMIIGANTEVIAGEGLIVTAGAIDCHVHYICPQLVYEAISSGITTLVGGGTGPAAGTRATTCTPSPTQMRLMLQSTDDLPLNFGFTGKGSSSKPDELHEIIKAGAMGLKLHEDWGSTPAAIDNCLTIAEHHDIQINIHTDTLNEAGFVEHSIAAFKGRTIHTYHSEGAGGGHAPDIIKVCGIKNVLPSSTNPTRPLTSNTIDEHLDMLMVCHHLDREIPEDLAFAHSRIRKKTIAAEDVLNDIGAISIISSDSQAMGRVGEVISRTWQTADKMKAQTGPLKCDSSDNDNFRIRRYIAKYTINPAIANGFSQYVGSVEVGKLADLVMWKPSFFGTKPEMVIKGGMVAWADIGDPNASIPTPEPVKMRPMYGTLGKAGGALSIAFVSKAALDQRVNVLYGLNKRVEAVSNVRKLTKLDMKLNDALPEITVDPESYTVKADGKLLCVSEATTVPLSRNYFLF
Method: The assay was performed exactly according to our previous report. Briefly, 850 μL of urea and 15 μL urease (0.135 units dissolved in PBS, pH 7.4) were added to 100 μL of the synthesized derivatives at different concentrations. After 30 min, to 100 μL of the incubated solution, 500 μL solution I (5.0 g phenol and 25.0 mg sodium nitroprusside in 500 mL water) was added followed by the addition of 500 μL of solution II (2.5 g sodium hydroxide, 4.2 mL sodium hypochlorite, and 5% chlorine in 500 mL water) which was further incubated at 37 °C for 30 min. The absorbance was determined by measuring indophenols at 625 nm. Thiourea was used as the standard inhibitor for urease. The IC50 values for all synthesized compounds were calculated using GraphPad Prism software (GraphPad Software, Inc., San Diego, CA)[20].

[1] = test system: methicillin-resistant Staphylococcus aureus (MRSA) isolates; assay: Antimicrobial activity against resistant isolates; assay type: cell-based
Method: Regarding the antibacterial activity of 6n and 6o against the standard strain of S. aureus, these derivatives were tested against methicillin-resistant Staphylococcus aureus (MRSA) isolates.
as §1

[2] = In vitro cytotoxic evaluation (MTT assay); assay type: cell-based; settings: human, MOLT-4 cells
Method: MOLT-4 (human acute lymphoblastic leukemia) cells were cultures in RPMI-1640 medium supplemented with 10% heat-inactivated fetal bovine serum. Cell viability was measured by the MTT assay. MOLT-4 cells were seeded into 96-well micro-culture plates. After 24 h, the culture medium was replaced with a medium containing different concentrations of newly synthesized derivatives. Control wells were supplemented with the same volume of growth medium not containing any drugs. Cells were then incubated at 37 °C for 72 h. At the end of the exposure time, the medium was removed and MTT solution of 0.5 mg/ml was added to each well. The plates were incubated at 37 °C for 4 h, after which DMSO was added to each well to solubilize the formed formazan crystals, and the absorbance of each well was read with a microplate reader at 570 nm.

[3] = test system: clinical isolate of P. vulgaris; assay: Antimicrobial activity, broth microdilution (CLSI); assay type: cell-based; settings: Proteus vulgaris
Method: (§2) Then, 100 μL of each dilution was transferred into the well of a microtiter plate and inoculated with 100 μL of cell suspension with a final density of 1–5 × 10^3 CFU/ml for yeasts and 1–1.5 × 10^6 cells/ml for bacteria. Plates were incubated at proper temperature overnight, and the minimum inhibitory concentration (MIC) of compounds was determined as the lowest concentration that prevented visible growth of tested microorganisms compared with the growth in the control wells (wells without tested compounds). […] All experiments were performed in duplicate[30],[31].

E. coli ATCC 25922 = assay: Antimicrobial activity, broth microdilution (CLSI); assay type: cell-based
Method: as §2

S. aureus ATCC 25923 = assay: Antimicrobial activity, broth microdilution (CLSI); assay type: cell-based; settings: Staphylococcus aureus, ATCC25923
Method: as §2

[4] = Escherichia coli, ATCC25922, read-out: MIC

Row | SMILES | MIC (C. albicans ATCC 10261) | inhibition at 512 µg/mL (S. aureus biofilm) | melting point | IC50 (urease) | MIC [1] | viability at 72 h, 100 µM [2] | MIC [3] | MIC (E. coli ATCC 25922; [4]) | MBC (S. aureus ATCC 25923) | MIC (S. aureus ATCC 25923) | MIC (E. coli ATCC 25922) | MBC (E. coli ATCC 25922; Escherichia coli, ATCC25922)
1 | CCCNC(=O)CC1SC(=S)N(CC(C)C)C1=O (stereo not shown) [Compound 6n, 2-(3-isobutyl-4-oxo-2-thioxothiazolidin-5-yl)-N-propylacetamide] | > 512 µg/mL | 37% | 160 to 162 °C | 2.38 ± 0.49 µM | 128 µg/mL (≈ 444 µM) | 96.4 ± 2.2% | > 512 µg/mL | > 512 µg/mL | > 512 µg/mL | 128 µg/mL (≈ 444 µM) | – | –
2 | C=CCNC(=O)CC1SC(=S)N(CC(C)C)C1=O (stereo not shown) [Compound 6o, N-allyl-2-(3-isobutyl-4-oxo-2-thioxothiazolidin-5-yl)acetamide] | > 512 µg/mL | 27% | 164 to 166 °C | 9.27 ± 1.65 µM | 512 µg/mL (≈ 1790 µM) | 97.3 ± 3.5% | > 512 µg/mL | 512 µg/mL (≈ 1790 µM) | 256 µg/mL (≈ 894 µM) | 128 µg/mL (≈ 447 µM) | 512 µg/mL (≈ 1790 µM) | > 512 µg/mL
